These are literature values, as cited in paper PMC2109944 (The Journal of Cell Biology, 1977).

In one data set the test system is mouse melanoma cells. The settings on record: binding at low temperature, no prefixation.
The next data set deals with human fibroblasts. Particulars: 125I-epidermal growth factor.
Data set [1] deals with dissociated anterior pituitary cells.

Consider a-MSH, for which the “initial distribution of MSH receptor sites” value in the data set on mouse melanoma cells is given as “initially distributed at one pole of the cell over the Golgi area”. Consider “epidermal growth factor: 125I-labelled epidermal growth factor, literature comparison”, for which the “internalization of hormone-bearing receptors” value in the data set on human fibroblasts was “internalized within hours of the binding taking place”.

Regarding “luteinizing hormone-releasing hormone [LHRH]”, in data set [1], the “time to LH release by exocytosis after stimulation” value was no more than 1 min. The “desensitization after short-term exposure” value in data set [1] (short-term exposure) is listed as “refractory to further stimulation by the peptide”.
